Experimental data: US10434225B2, “Para-xylene films and therapeutic uses thereof” (NORTHWESTERN UNIVERSITY, priority 2013, dated 2019)

Tested on: Interleukin-6 (IL-6)
Assay: IL-6 gene expression by real-time PCR in macrophages on surfaces
Format: cell-based, murine
Details: RAW264.7 macrophages, LPS stimulated (+), DEX added to Control or integrated into PPX film
Experimental: In-vitro analysis and drug release was completed through deposition of PPX on varying culture plates. Surface treatment of prepared PPX culture plates either had plasma oxidation (Oxd) or lack thereof resulting in hydrophilic or hydrophobic surfaces (native form). RAW264.7 macrophages and NIH-3T3 fibroblasts were analyzed on varying surfaces to determine in-vitro response. Cells were kept in DMEM media supplemented with 10% FBS and 1% Pen/Strep in humidified atmosphere with 5% CO^2. Cellular analysis was completed through the application of time lapse bright field imaging in addition to multiple cellular assays examining viability (MTT, Roche Diagnostics), proliferation (CyQUANT, Life Technologies) and adhesion (Vybrant, Molecular Probes) onto polystyrene, representing baseline biocompatible control surfaces, and various PPX surfaces. RNA isolation was accomplished utilizing TRIzol reagent (Invitrogen Corporation, Carlsbad, Calif.) per the manufacturer's guidelines. cDNA was synthesized using the iScript Select cDNA Synthesis Kit (Quanta Biosciences, Gaithersburg, Md.). PCR was done using SYBER Green detection reagents (Quanta Biosciences, Gaithersburg, Md.) and appropriate primers for IL-6 and β-Actin (Integrated DNA Technologies, Coralville, Iowa). Samples were amplified using a MyiQ real-time PCR detection system (Bio-Rad).

Compound: C[C@@H]1C[C@H]2[C@@H]3CCC4=CC(=O)C=C[C@]4(C)[C@@]3(F)[C@@H](O)C[C@]2(C)[C@@]1(O)C(=O)CO [DEX, dexamethasone]
- IL-6 expression, LPS stimulation (+) with DEX: 217.4±54.0
